# Test results as given in patent US8324264B1, “Inhibitors of bacterial biofilms and related methods” (Sequoia Sciences, Inc., priority 2011, dated 2012).
# Structures can show the parent of a compound that is named as a salt.
row,SMILES,melting point
1,"CC1(C)CC[C@]2(C(=O)Nc3nnc(N)s3)CC[C@]3(C)C(=CCC4[C@@]5(C)Cc6c(n[nH]c6N)C(C)(C)C5CC[C@]43C)C2C1 (stereo partly drawn) (as salt: ammonium) [Compound 71, (4aS,6aS,6bR,13aR)-12-Amino-N-(5-amino-1,3,4-thiadiazol-2-yl)-2,2,6a,6b,9,9,13a-heptamethyl-2,3,4,4a,5,6,6a,6b,7,8,8a,9,11,13,13a,13b,14,15b-octadecahydro-1H-chryseno[1,2-f]indazole-4-a-carboxamide]",280 to 300 °C (dec.)
2,"Cc1nnc(S)n1NC(=O)[C@]12CCC(C)(C)CC1C1=CCC3[C@@]4(C)Cc5c(n[nH]c5N)C(C)(C)C4CC[C@@]3(C)[C@]1(C)CC2 (stereo partly drawn) (as salt: ammonium) [Compound 77, (4aS,6aS,6bR,13aR)-12-Amino-N-(3-mercapto-5-methyl-4H-1,2,4-triazol-4-yl)-2,2,6a,6b,9,9,13a-heptamethyl-2,3,4,4a,5,6,6a,6b,7,8,8a,9,11,13,13a,13b,14,15b-octadecahydro-1H-chryseno[1,2-f]indazole-4-a-carboxamide]",250 to 270 °C (dec.)
3,"CC1(C)CC[C@]2(C(=O)Nc3cc(O)[nH]n3)CC[C@]3(C)C(=CCC4[C@@]5(C)Cc6c(n[nH]c6N)C(C)(C)C5CC[C@]43C)C2C1 (stereo partly drawn) (as salt: ammonium) [Compound 66, (4aS,6aS,6bR,13aR)-12-Amino-N-(5-hydroxy-1H-pyrazol-3-yl)-2,2,6a,6b,9,9,13a-heptamethyl-2,3,4,4a,5,6,6a,6b,7,8,8a,9,11,13,13a,13b,14,15b-octadecahydro-1H-chryseno[1,2-f]indazole-4-a-carboxamide]",275 to 295 °C (dec.)
4,"CC1(C)CC[C@]2(C(=O)Nc3nnc(S)s3)CC[C@]3(C)C(=CCC4[C@@]5(C)Cc6c(n[nH]c6N)C(C)(C)C5CC[C@]43C)C2C1 (stereo partly drawn) (as salt: ammonium) [Compound 74, (4aS,6aS,6bR,13aR)-12-Amino-N-(5-mercapto-1,3,4-thiadiazol-2-yl)-2,2,6a,6b,9,9,13a-heptamethyl-2,3,4,4a,5,6,6a,6b,7,8,8a,9,11,13,13a,13b,14,15b-octadecahydro-1H-chryseno[1,2-f]indazole-4-a-carboxamide]",> 300 °C
5,"CC1(C)CC[C@]2(c3n[nH]c(O)c3CCN)CC[C@]3(C)C(=CCC4[C@@]5(C)Cc6c(n[nH]c6N)C(C)(C)[C@@H]5CC[C@]43C)[C@@H]2C1 (stereo partly drawn) (as salt: ammonium) [Compound 84, 3-((4aS,6aS,6bR,13aR)-12-Amino-2,2,6a,6b,9,9,13a-heptamethyl-2,3,4,4a,5,6,6a,6b,7,8,8a,9,11,13,13a,13b,14,15b-octadecahydro-1H-chryseno[1,2-f]indazol-4-a-yl)-4-(2-aminoethyl)-1H-pyrazol-5-ol]",250 to 260 °C (dec.)

# The next lines start with the values.
row,melting point,SMILES
1,> 300 °C,"CCC1=C2[C@@H]3CC(C)(C)CC[C@]3(C(=O)O)CC[C@@]2(C)[C@]2(C)CC[C@H]3C(C)(C)c4n[nH]c(N)c4C[C@]3(C)C2C1 (stereo partly drawn) (as salt: ammonium) [Example 14, (4aS,6aS,6bR,8aR,13aR,15bS)-12-Amino-15-ethyl-2,2,6a,6b,9,9,13a-heptamethyl-2,3,4,4a,5,6,6a,6b,7,8,8a,9,11,13,13a,13b,14,15b-octadecahydro-1H-chryseno[1,2-f]indazole-4-a-carboxylic acid]"
2,250 to 270 °C (dec.),"CC1(C)CC[C@]2(C(=O)O)CC[C@]3(C)C(=C(c4ccco4)CC4[C@@]5(C)Cc6c(n[nH]c6N)C(C)(C)[C@@H]5CC[C@]43C)[C@@H]2C1 (stereo partly drawn) (as salt: ammonium) [Example 7, (4aS,6aS,6bR,13aR)-12-Amino-15-(furan-2-yl)-2,2,6a,6b,9,9,13a-heptamethyl-2,3,4,4a,5,6,6a,6b,7,8,8a,9,11,13,13a,13b,14,15b-octadecahydro-1H-chryseno[1,2-f]indazole-4-a-carboxylic acid]"
3,260 to 280 °C (dec.),"CC1(C)CC[C@]2(C(=O)O)CC[C@]3(C)C(=C(c4cccc(O)c4)CC4[C@@]5(C)Cc6c(n[nH]c6N)C(C)(C)C5CC[C@]43C)C2C1 (stereo partly drawn) (as salt: ammonium) [Example 16, (4aS,6aS,6bR,13aR)-12-Amino-15-(3-hydroxyphenyl)-2,2,6a,6b,9,9,13a-heptamethyl-2,3,4,4a,5,6,6a,6b,7,8,8a,9,11,13,13a,13b,14,15b-octadecahydro-1H-chryseno[1,2-f]indazole-4-a-carboxylic acid]"
4,258 to 278 °C,"C[C@H]1[C@H](C)CC[C@]2(C(=O)O)CC[C@]3(C)C(=CCC4[C@@]5(C)Cc6c(n[nH]c6N)C(C)(C)[C@@H]5CC[C@]43C)[C@H]12 (stereo partly drawn) (as salt: ammonium) [Example 2, (4aS,6aS,6bR,13aR)-12-Amino-2,2,6a,6b,9,9,13a-heptamethyl-2,3,4,4a,5,6,6a,6b,7,8,8a,9,11,13,13a,13b,14,15b-octadecahydro-1H-chryseno[1,2-f]indazole-4-a-carboxylic acid]"
5,> 300 °C,"CC1(C)CC[C@]2(c3n[nH]c(O)c3N3CCOCC3)CC[C@]3(C)C(=CCC4[C@@]5(C)Cc6c(n[nH]c6N)C(C)(C)[C@@H]5CC[C@]43C)[C@@H]2C1 (stereo partly drawn) (as salt: ammonium) [Compound 88, 3-((4aS,6aS,6bR,13aR)-12-Amino-2,2,6a,6b,9,9,13a-heptamethyl-2,3,4,4a,5,6,6a,6b,7,8,8a,9,11,13,13a,13b,14,15b-octadecahydro-1H-chryseno[1,2-f]indazol-4-a-yl)-4-morpholino-1H-pyrazol-5-ol]"
6,210 to 230 °C (dec.),"CC1(C)CC[C@]2(C(=O)O)CC[C@]3(C)C(=C(c4ccccc4N)CC4[C@@]5(C)Cc6c(n[nH]c6N)C(C)(C)C5CC[C@]43C)C2C1 (stereo partly drawn) (as salt: ammonium) [Example 23, (4aS,6aS,6bR,13aR)-12-Amino-15-(2-aminophenyl)-2,2,6a,6b,9,9,13a-heptamethyl-2,3,4,4a,5,6,6a,6b,7,8,8a,9,11,13,13a,13b,14,15b-octadecahydro-1H-chryseno[1,2-f]indazole-4-a-carboxylic acid]"
7,> 300 °C,"C[C@@H]1c2n[nH]c(N)c2C[C@]2(C)C3CC=C4[C@@H]5CC(C)(C)CC[C@]5(C(=O)O)CC[C@@]4(C)[C@]3(C)CC[C@@H]12 (stereo partly drawn) (as salt: ammonium) [Example 3, (4aS,6aS,6bR,8aS,9S,13aS,15bS)-12-Amino-2,2,6a,6b,9,13a-hexamethyl-2,3,4,4a,5,6,6a,6b,7,8,8a,9,11,13,13a,13b,14,15b-octadecahydro-1H-chryseno[1,2-f]indazole-4-a-carboxylic acid]"
8,> 300 °C,"CC1=C2[C@@H]3CC(C)(C)CC[C@]3(C(=O)O)CC[C@@]2(C)[C@]2(C)CC[C@H]3C(C)(C)c4n[nH]c(N)c4C[C@]3(C)C2C1 (stereo partly drawn) (as salt: ammonium) [Example 4, (4aS,6aS,6bR,8aR,13aR,15bS)-12-Amino-2,2,6a,6b,9,9,13a,15-octamethyl-2,3,4,4a,5,6,6a,6b,7,8,8a,9,11,13,13a,13b,14,15b-octadecahydro-1H-chryseno[1,2-f]indazole-4-a-carboxylic acid]"
